Values quoted from earlier work as cited in US20230184643A1, “METHOD FOR MEASURING OR IDENTIFYING A COMPONENT OF INTEREST IN SPECIMENS” (SHIMADZU CORPORATION, priority 2020, published 2023).
Marks after values point to notes of the source that are not given here.

Settings: Table 4.1; Drug bank accessed November 2020

- LogP: −4.3^a
SMILES: CN[C@@H]1[C@@H](O)[C@@H](O[C@@H]2[C@@H](O)[C@H](O[C@H]3OC(CN)=CC[C@H]3N)[C@@H](N)C[C@H]2N)OC[C@]1(C)O [Sisomicin]
